Test results published in patent publication US12053523B2, “Compositions comprising chemotherapeutic agents and checkpoint inhibitors and methods of use” (NORTH CAROLINA STATE UNIVERSITY, priority 2017, dated 2024).
Entries after “also recorded” stand apart in the source; their conditions may differ. Where a name gives a salt, the structure may show the parent alone.

Columns and labels:
[1] = GEM and aPDL1 release from PVA-TSPBA hydrogels; format: physicochemical; conditions: 37° C.
Method: FIGS. 1A, 1B, 1C, 1D, 1E, and 1F show a schematic and characterization of in situ formed reactive oxygen species (ROS)-responsive PVA-TSPBA scaffold. […] Scale bar, 0.5 μm. Inset: a zoom-in image of the scaffold. Scale bar, 0.1 μm. […] Scale bar, 25 μm. […] FIGS. 1E and IF show cumulative release profiles of GEM (1e) and aPDL1 (1f) from hydrogels when incubated with PBS with or without H2O2 (1 mM).
The TSPBA can be oxidized and hydrolyzed when exposed to H2O2 in the TME, leading to the dissociation of the polymeric scaffold and the release of PVA and payloads. To verify the ROS-sensitive degradability of the hydrogels, samples were immersed in phosphate-buffered saline (PBS) containing […] H2O2 at 37° C. […] The release profiles of GEM and aPD-L1 were quantified using high-performance liquid chromatography (HPLC) and enzyme-linked immunosorbent assay (ELISA), respectively. […] The release pattern was further examined in vivo after the intratumor injection of the drug-loaded scaffolds in the B16F10 mouse model. […] These distinct release dynamics facilitated the delivery of GEM and aPD-L1 into the TME for the intended sequential effects.
Release studies were performed at 37° C. with constant agitation in PBS. […] The released GEM was analyzed by HPLC and the antibody release was determined by Rat IgG total ELISA kit (eBioscience).

[2] = tested on: B16F10 cancer cells; assay: Treatment of B16F10 cancer cells in vitro with GEM (flow cytometry, immunofluorescence, western blot); format: cell-based, mouse
Method: FIGS. 7A and 7B show the effects of GEM to cancer cells in vitro.
Circulating type 1 T helper (Th1) cytokines were also measured before and after GEM@Gel implantation (FIG. 6g).
(§1) The mouse melanoma cell line B16F10 and mouse mammary carcinoma cell line 4T1 were purchased from the American Type Culture Collection. B16F10-luc-GFP and 4T1-luc-GFP cells were gifts from Dr. Leaf Huang at the University of North Carolina at Chapel Hill. B16F10 cells were maintained in Dulbecco's Modified Eagle Medium (Gibco, Invitrogen) supplemented with 10% fetal bovine serum (Invitrogen, Carlsbad, CA), 100 U/mL penicillin (Invitrogen), and 100 […] (Invitrogen). 4T1 cells were maintained in RPMI-1640 Medium (Gibco, Invitrogen) supplemented with 10% fetal bovine serum (Invitrogen, Carlsbad, CA), 100 U/mL penicillin (Invitrogen), and 100 […] (Invitrogen). Master and working cell banks were generated immediately upon receipt. The third and fourth passages were used for the experiments. Cells were tested every three months to exclude the presence of mycoplasma. Authentication of cells was not performed after receipt.

[3] = tested on: 4T1 cancer cells; assay: Effects of GEM in 4T1 cells in vitro (PD-L1 by flow cytometry); format: cell-based, mouse; conditions: GEM 0, 1, 2, 5, 10 μM for 48 hours, remaining live cells; hydrochloride
Method: The data are shown as mean±SD. Error bars are based on at least triplicate measurements. P value: *, P<0.05.
4T1 cells were reported to express low levels of PD-L1. […] For in vivo study, 4T1 were inoculated subcutaneously into the right flank of female BABL/c mice. After 7 days, the mice bearing 4T1 tumors were treated with GEM@Gel (200 μL, 10% w/w) (GEM: 5 mg/kg), aPD-L1@Gel (aPDL1: 50 μg per mouse) or GEM-aPD-L1@Gel (aPD-L1: 50 μg per mouse, GEM: 5 mg/kg).
as §1, with “Authentication of cells was not performed after receipt.” left out

Nc1ccn([C@@H]2O[C@H](CO)[C@@H](O)C2(F)F)c(=O)n1 [GEM, Gemcitabine hydrochloride]
Release from the hydrogel in H2O2 solution compared to control PBS ([1]; H2O2 1 mM vs PBS): in a triggered manner | Release of GEM from the hydrogel ([1]; H2O2 solution (1 mM) in PBS, HPLC): great majority of GEM was released within one day | PD-L1 on surviving B16F10 cells ([2]; GEM 5 μM, within 24 hours): significant PD-L1 upregulation | Dose and time dependence of PD-L1 expression on B16F10 cancer cells ([2]; flow cytometry, immunofluorescence, western blot): GEM-dose- and time-dependent | Cell death of B16F10 cancer cells ([2]; in vitro): resulted in cell death | Expression of PD-L1 in surviving B16F10 cells ([2]; in vitro): increased expression of PD-L1 | PD-L1 expression in 4T1 cancer cells [3]: induced PD-L1 expression; also recorded: PD-L1 upregulation
